Reference: patent EP1355153A1, “Screening method for agents against cardiovascular diseases” (NAMAXX GENOMICS GMBH, priority 2002, dated 2003)

Tested on: heart of the chick embryo
Experiment: Relative stroke volume of the chick embryo heart by video microscopy (decrease by isoproterenol, rescue by metoprolol)
Type: in vivo, chicken
Conditions: for % remaining stroke volume: 50 µL isoproterenol 1 mM topically, followed by 20 µL metoprolol 15 mM or water-dimethylsulfoxide mix (isoproterenol alone), after 2 minutes at 22°C; for reduction of the stroke volume: isoproterenol alone or applied with metoprolol
Protocol: Fertilized Bovans Goldline brown chicken eggs (12 hrs after laying, kept at 18°C) were incubated at 38°C and 45 % humidity during 72 hrs (Motorbruter 126-EM, Bruja). The eggshell was then broken and the egg white, the yolk and the embryo were removed and placed in a Petri dish (Greiner, 9.4 cm diameter). This Petri dish was placed in a bigger Petri dish (Greiner, 14 cm diameter) containing water and an incubation is performed at 38°C and 45 % humidity for 24 hrs or 48 hrs. The relative stroke volume of the heart of the chick embryo was then estimated by video microscopy using a binocular (SZX-ZB9, Olympus), a CCD camera (F-View, Soft Imaging Systems) and an image analysis software (AnalySIS Auto Software, Soft Imaging Systems). The beating heart of the embryo was filmed and the grey density of the heart area under systole was subtracted from the density of the heart area under diastole. By performing said subtraction, the so-called "relative stroke volume" is obtained, which represents a relative value instead of a volume.
50 µL of a isoproterenol (Sigma) solution (1mM, water) was then topically applied on the surface of the embryo, followed by 20 µL metoprolol (Sigma) solution (15 mM, Vol-90 % water, 10 % dimethylsulfoxide). Metoprolol is a marketed drug for human use against heart failure (M. Andrejak and M. Slama, Presse Med. 27:2025-30 (1998)). After 2 minutes at 22°C, the heart was monitored and the relative stroke volume was measured. The same experiment was performed by replacing the metoprolol solution by a water-dimethylsulfoxide mix (90 %-10 %) in order to investigate the effect of isoproterenol alone. Controls were performed with untreated embryos. The test groups of the 96 hrs old embryos (Table 1) comprise seven embryos each, while the test groups of the 120 hrs old embryos (Table 2) comprise five embryos each.

[1] = 96 hrs old embryos, after 2 minutes
[2] = 120 hrs old embryos, after 2 minutes incubation

Structure (SMILES) | % remaining stroke volume (96 hrs old embryos (n=7)) | reduction of the stroke volume [1] | % remaining stroke volume (120 hrs old embryos (n=5)) | reduction of the stroke volume [2]
CC(C)NCC(O)c1ccc(O)c(O)c1 (centres unmarked) [Isoproterenol, isoproterenol] | 25,5% | 75% | 27,2% | 72%
COCCc1ccc(OCC(O)CNC(C)C)cc1 (centres unmarked) [metoprolol] | 57,0% | 43% | 58,8% | 41%
